Measured values: patent US20090099174A1, “COMBINATION 059” (ASTRAZENECA AB, priority 2007, published 2009)

How the values were obtained:
A2058 cell line = experiment: 96-hour MTS viable cell number assay, A2058 cell line (monotherapy and concurrent combination); type: cell-based; details: Homo sapiens, 96-hour viable cell number endpoint by MTS, read-out: IC50 monotherapy (Geomean)
Excerpt: The objective of this assay was to determine the in-vitro combination interaction when combining AZD6244 or 2-(2-fluoro-4-iodophenylamino)-N-(2-hydroxyethoxy)-1,5-dimethyl-6-oxo-1,6-dihydropyridine-3-carboxamide concurrently with Compound A or Rapamycin in the A2058, NCI-H727, Calu-6, NCI-H2291, NCI-H23, A549 and NCI-H460 cell lines using a 96-hour viable cell number endpoint (MTS).
The A2058 cell line was routinely cultured and assayed in DMEM (phenol red free)+10% Foetal Calf Serum (FCS)+1% glutamine. The A2058 cell line is wild type for HRAS, KRAS and NRAS and mutant for the BRAF V600E mutation.
MTS viable cell number assays were carried out to determine seeding densities required for 96 hours of exponential growth. Cells were seeded into 96-well plates at their pre-determined seeding density allowing for log phase growth. After 4-hours cells were dosed with monotherapy AZD6244, 2-(2-fluoro-4-iodophenylamino)-N-(2-hydroxyethoxy)-1,5-dimethyl-6-oxo-1,6-dihydropyridine-3-carboxamide, Compound A, or Rapamycin using the Hydra/ECHO 550 platform. Following incubation with compound for 96-hours viable cell number was determined using an MTS viable cell number (Promega™) endpoint.
Concurrent combination: Cells were seeded into 96-well plates at the above-determined seeding density allowing for log phase growth. After 4 hours cells were dosed concurrently with
Non-linear MEA (Median Effect Analysis): The combination interaction between 2 active agents, each with well defined IC50 monotherapy dose responses was assessed using equal inhibitory effect ratios of the two agents (IC60, IC50, IC40, IC30, IC20, IC10). A combination index (CI)<0.85 indicates a synergistic interaction, CI 0.85-1.2 additivity and a CI>1.2 antagonism.
That is a fixed dose of the partially active agent (in MTS assays) was applied across the full dose response of the active agent. Relative potency is defined as the ratio of the combination IC50 to the monotherapy IC50.

LoVo xenografts = experiment: LoVo tumour xenograft growth in nude mice; type: in vivo
Protocol: (§1) LoVo cells were grown in DMEM (Gibco) 10% FCS 1% Glutamine medium and HCT116 cells were grown in McCoys 5A 10% FCS 1% Glutamine, A549a and CaLu-6 cells were grown in RPMI1640 10% FCS 1% Glutamine. […] cells were implanted into the flank of nude mice (LoVo no matrigel, HCT-116, Calu-6 and A549a plus 50% matrigel).
(§2) When mean tumour size reached approximately 0.2 cm^3, the mice were randomized into control and treatment groups. The treatment groups received either 25 or 50 mg/kg AZD6244 (vehicle: HPMC/Tween milled overnight), or 20 mg/kg Compound A (vehicle 10% DMSO, 90% propylene glycol) by oral gavage, Rapamycin was given 4 mg/kg once weekly (10% DMSO-10% Cremaphor-10% Ethanol-70% water for injection. When administered in combination, Compound A was given 2 hours after the oral dose of the other compound. The control group received vehicle (10% DMSO 90% propylene glycol) alone, once daily by oral gavage.
(§3) Tumour volumes (measured by caliper), animal body weight and tumour condition were recorded twice weekly for the duration of the study. Mice were sacrificed by CO2 euthanasia. The tumour volume was calculated (taking length to be the longest diameter across the tumour and width to be the corresponding perpendicular diameter using the formula: (length×width)×√(length×width)×(π/6). Growth inhibition from the start of treatment was assessed by comparison of the differences in tumour volume between control and treated groups. Because the variance in mean tumour volume data increases proportionally with volume (and is therefore disproportionate between groups), data were log-transformed to remove any size dependency before statistical evaluation.
Statistical significance was evaluated using a one-tailed, two-sample t test. To analyze the data from the combination study, the statistical tool SigmaStat has been used. A two-way ANOVA test was performed using the factors concentration of drug A and concentration of drug B. The data analyzed was Log (final tumour volume)-Log (initial tumour volume) calculated for each individual group at the end of the study. This tool is used to assess whether there is a main effect of drug A, a main effect of drug B plus a significant interaction between the two compounds A and B (eg. one compound influences the effect of the other compound) which may be interpreted as antagonism, additivity or synergism.

Calu-6 xenografts = experiment: Calu-6 tumour xenograft growth in nude mice; type: in vivo
Protocol: as §1, §2, §3
(§4) Statistical significance was evaluated using a one-tailed, two-sample t test. To analyze the data from the combination study, the statistical tool SigmaStat has been used. A two-way ANOVA test was performed using the factors concentration of drug A and concentration of drug B. The data analyzed was Log (final tumour volume)-Log (initial tumour volume) calculated for each individual group at the end of the study. […]

A549a xenografts = experiment: A549a tumour xenograft growth in nude mice; type: in vivo
Protocol: as §1, §2, §3, §4

A549 cell line = experiment: 96-hour MTS viable cell number assay, A549 cell line (monotherapy and combination); details: for IC50: Homo sapiens, A549, 96 h, read-out: IC50 monotherapy (Geomean)
Protocol: (§5) The NCI-H727, Calu-6, NCI-H2291, NCI-H23, A549 and NCI-H460 cell lines were routinely cultured and assayed in RPMI (phenol red free)+10% Foetal Calf Serum (FCS)+1% glutamine.
(§6) MTS viable cell number assays were carried out to determine seeding densities required for 96 hours of exponential growth. Cells were seeded into 96-well plates at their pre-determined seeding density allowing for log phase growth. […] Following incubation with compound for 96-hours viable cell number was determined using an MTS viable cell number (Promega™) endpoint.

Calu-6 cell line = experiment: 96-hour MTS viable cell number assay, Calu-6 cell line (monotherapy and combination); details: Homo sapiens, Calu-6, 96 h, read-out: IC50 monotherapy (Geomean)
Protocol: as §5, §6

NCI-H23 cell line = experiment: 96-hour MTS viable cell number assay, NCI-H23 cell line (monotherapy and combination); details: for IC50: Homo sapiens, NCI-H23, 96 h, read-out: IC50 monotherapy (Geomean)
Protocol: as §5, §6

NCI-H727 cell line = experiment: 96-hour MTS viable cell number assay, NCI-H727 cell line (monotherapy and combination); details: Homo sapiens, NCI-H727, 96 h, read-out: IC50 monotherapy (Geomean)
Protocol: as §5, §6

NCI-H460 cell line = experiment: 96-hour MTS viable cell number assay, NCI-H460 cell line (monotherapy and combination); details: for IC50: Homo sapiens, NCI-H460, 96 h, read-out: IC50 monotherapy (Geomean)
Protocol: as §5, §6

NCI-H2291 cell line = experiment: 96-hour MTS viable cell number assay, NCI-H2291 cell line (monotherapy and combination); details: for IC50: Homo sapiens, NCI-H2291, 96 h, read-out: IC50 monotherapy (Geomean)
Protocol: as §5, §6

pERK 1/2(Thr202/Tyr204) = experiment: pharmacodynamic effect of AZD6244 against pERK 1/2; type: cell-based
HCT-116 xenografts = experiment: HCT-116 tumour xenograft growth in nude mice; type: in vivo
Protocol: as §1
When mean tumour size reached approximately 0.2 cm^3, the mice were randomized into control and treatment groups. […]
as §3, with “Mice were sacrificed by CO2 euthanasia.” left out
Statistical significance was evaluated using a one-tailed, two-sample t test. […]

[1] = 20 mg/kg Compound A, oral gavage

Row | SMILES | IC50 (A2058 cell line) [nM] | IC50 (A549 cell line) [nM] | IC50 (Calu-6 cell line) [nM] | IC50 (NCI-H23 cell line) [nM] | IC50 (NCI-H727 cell line) [nM] | IC50 (NCI-H460 cell line) [nM] | IC50 (NCI-H2291 cell line) [nM] | further results
1 | CO[C@H]1C[C@@H]2CC[C@@H](C)[C@@](O)(O2)C(=O)C(=O)N2CCCC[C@H]2C(=O)O[C@H]([C@H](C)C[C@@H]2CC[C@@H](O)[C@H](OC)C2)CC(=O)[C@H](C)/C=C(\C)[C@@H](O)[C@@H](OC)C(=O)[C@H](C)C[C@H](C)/C=C/C=C/C=C/1C [Rapamycin] | > 10000 | > 10000 | > 10000 | > 10000 | > 10000 | > 10000 | > 10000 | reduction in geometric mean delta tumour volume compared with the vehicle treated control (LoVo xenografts; 4 mg/kg Rapamycin): 38.2%; reduction in geometric mean delta tumour volume compared with the vehicle treated control (Calu-6 xenografts; 4 mg/kg once weekly Rapamycin): 37.2%; reduction in geometric mean delta tumour volume compared with the vehicle treated control (A549a xenografts; 4 mg/kg once weekly Rapamycin): 69.5%; growth inhibitory effect reached (A549 cell line; A549, regardless of the presence of AZD6244): < 50%; growth inhibitory effect reached (NCI-H23 cell line; NCI-H23, regardless of the presence of AZD6244): < 50%; growth inhibitory effect reached (NCI-H460 cell line; NCI-H460, regardless of the presence of AZD6244): < 50%; growth inhibitory effect reached (NCI-H2291 cell line; NCI-H2291, regardless of the presence of AZD6244): < 50%
2 | Cn1cnc2c(F)c(Nc3ccc(Br)cc3Cl)c(C(=O)NOCCO)cc21 [AZD6244] | 526 | 12400 | 257 | 1840 | 36 | 32400 | 704 | ED90, pharmacodynamic effect against pERK 1/2(Thr202/Tyr204) (pERK 1/2(Thr202/Tyr204)): 333 nM; ED95, pharmacodynamic effect against pERK 1/2(Thr202/Tyr204) (pERK 1/2(Thr202/Tyr204)): 1000 nM; EC50 (pERK 1/2(Thr202/Tyr204); read-out: ED50, pharmacodynamic effect against pERK 1/2(Thr202/Tyr204)): 20 nM; reduction in geometric mean delta tumour volume compared with the vehicle control (HCT-116 xenografts; 25 mg/kg AZD6244, oral gavage): 59%; reduction in geometric mean delta tumour volume compared with the vehicle treated control (LoVo xenografts; 25 mg/kg twice daily AZD6244): 38.7%; reduction in geometric mean delta tumour volume compared with the vehicle control (LoVo xenografts; 50 mg/kg AZD6244, oral gavage): 43%; reduction in geometric mean delta tumour volume compared with the vehicle treated control (Calu-6 xenografts; 50 mg/kg once daily AZD6244): 93.2%; reduction in geometric mean delta tumour volume compared with the vehicle treated control (A549a xenografts; 25 mg/kg once daily AZD6244): 53.4%
3 | COc1ccc(-c2ccc3c(N4CCOC[C@@H]4C)nc(N4CCOC[C@@H]4C)nc3n2)cc1CO [Compound A, [5-[2,4-bis[(3S)-3-methylmorpholin-4-yl]pyrido[5,6-e]pyrimidin-7-yl]-2-methoxyphenyl]methanol] | 46 | 37 | 50 | 30 | 68 | 26 | 23 | reduction in geometric mean delta tumour volume compared with the vehicle control (HCT-116 xenografts; [1]): 24%; reduction in geometric mean delta tumour volume compared with the vehicle control (LoVo xenografts; [1]): 66%; reduction in geometric mean delta tumour volume compared with the vehicle treated control (Calu-6 xenografts; 20 mg/kg once daily Compound A): 44.9%; reduction in geometric mean delta tumour volume compared with the vehicle treated control (A549a xenografts; 20 mg/kg once daily Compound A): 94.1%
4 | Cc1cc(C(=O)NOCCO)c(Nc2ccc(I)cc2F)n(C)c1=O [2-(2-fluoro-4-iodophenylamino)-N-(2-hydroxyethoxy)-1,5-dimethyl-6-oxo-1,6-dihydropyridine-3-carboxamide] | 25 | – | – | – | – | – | – | –
